{"source": "patent US20230322846A9", "about": "“NEUROACTIVE STEROIDS AND THEIR METHODS OF USE” (SAGE THERAPEUTICS, INC., priority 2018, published 2023)", "note": "pIC50: −log10 of the molar value."}
{"biological_target": "[35S]-TBPS binding, rat brain cortical membranes", "test": "Steroid inhibition of [35S]-TBPS binding", "settings": "3 nM [35S]-TBPS, in the presence of 5 mM GABA", "procedure": "[^35S]-t-Butylbicyclophosphorothionate (TBPS) binding assays using rat brain cortical membranes in the presence of 5 mM GABA has been described (Gee et al, J. Pharmacol. Exp. Ther. 1987, 241, 346-353; Hawkinson et al, Mol. Pharmacol. 1994, 46, 977-985; Lewin, A. H et al., Mol. Pharmacol. 1989, 35, 189-194).\nBriefly, cortices are rapidly removed following decapitation of carbon dioxide-anesthetized Sprague-Dawley rats (200-250 g). The cortices are homogenized in 10 volumes of ice-cold 0.32 M sucrose using a glass/teflon homogenizer and centrifuged at 1500×g for 10 min at 4° C. The resultant supernatants are centrifuged at 10,000×g for 20 min at 4° C. to obtain the P2 pellets. The P2 pellets are resuspended in 200 mM NaCl/50 mM Na—K phosphate pH 7.4 buffer and centrifuged at 10,000×g for 10 min at 4° C. This washing procedure is repeated twice and the pellets are resuspended in 10 volumes of buffer. Aliquots ([…]) of the membrane suspensions are incubated with 3 nM [^35S]-TBPS and […] aliquots of test drug dissolved in dimethyl sulfoxide (DMSO) (final 0.5%) in the presence of 5 mM GABA. The incubation is brought to a final volume of 1.0 mL with buffer. Nonspecific binding is determined in the presence of […] and ranged from 15 to 25%. Following a 90 min incubation at room temp, the assays are terminated by filtration through glass fiber filters (Schleicher and Schuell No. 32) using a cell harvester (Brandel) and rinsed three times with ice-cold buffer. Filter bound radioactivity is measured by liquid scintillation spectrometry. Non-linear curve fitting of the overall data for each drug averaged for each concentration is done using Prism (GraphPad). […] The concentration of test compound producing 50% inhibition (IC50) of specific binding and the maximal extent of inhibition (Imax) are determined for the individual experiments with the same model used for the overall data and then the means±SEM.s of the individual experiments are calculated.\nVarious compounds are or can be screened to determine their potential as modulators of [^35S]-TBPS binding in vitro. These assays are or can be performed in accordance with the above"}
{"smiles": "C[C@@H](NS(=O)(=O)c1ccccc1)[C@H]1CC[C@H]2[C@@H]3CC[C@@H]4C[C@](C)(O)CC[C@@H]4[C@H]3CC[C@]12C", "note": "[Example 18, N—((R)-1-((3R,5R,8R,9R,10S,13S,14S,17S)-3-hydroxy-3,13-dimethylhexadecahydro-1H-cyclopenta[a]phenanthren-17-yl)ethyl)benzenesulfonamide]", "pIC50": "> 7.00"}
{"smiles": "C[C@@H]([C@H]1CC[C@H]2[C@@H]3CC[C@@H]4C[C@](C)(O)CC[C@@H]4[C@H]3CC[C@]12C)N(C)C(=O)c1ccccc1", "note": "[Example 19, N—((S)-1-((3R,5R,8R,9R,10S,13S,14S,17S)-3-hydroxy-3,13-dimethylhexadecahydro-1H-cyclopenta[a]phenanthren-17-yl)ethyl)-N-methylbenzamide]", "pIC50": "5.00 to 6.00"}
{"smiles": "C[C@H]([C@H]1CC[C@H]2[C@@H]3CC[C@@H]4C[C@](C)(O)CC[C@@H]4[C@H]3CC[C@]12C)N(C)C(=O)c1ccccc1", "note": "[Example 20, N-((1R)-1-((3R,5R,9R,10S,13S,14S,17S)-3-hydroxy-3,13-dimethylhexadecahydro-1H-cyclopenta[a]phenanthren-17-yl)ethyl)-N-methylbenzamide]", "pIC50": "6.00 to 7.00"}
{"smiles": "C[C@@H]([C@H]1CC[C@H]2[C@@H]3CC[C@@H]4C[C@](C)(O)CC[C@@H]4[C@H]3CC[C@]12C)N(C)S(=O)(=O)c1ccccc1", "note": "[Example 21, N—((S)-1-((3R,5R,8R,9R,10S,13S,14S,17S)-3-hydroxy-3,13-dimethylhexadecahydro-1H-cyclopenta[a]phenanthren-17-yl)ethyl)-N-methylbenzenesulfonamide]", "pIC50": "5.00 to 6.00"}
{"smiles": "C[C@H]([C@H]1CC[C@H]2[C@@H]3CC[C@@H]4C[C@](C)(O)CC[C@@H]4[C@H]3CC[C@]12C)N(C)S(=O)(=O)c1ccccc1", "note": "[Example 22, N—((R)-1-((3R,5R,8R,9R,10S,13S,14S,17S)-3-hydroxy-3,13-dimethylhexadecahydro-1H-cyclopenta[a]phenanthren-17-yl)ethyl)-N-methylbenzenesulfonamide]", "pIC50": "> 7.00"}
{"smiles": "C[C@H](NC(=O)c1ccccc1)[C@H]1CC[C@H]2[C@@H]3CC[C@@H]4C[C@](C)(O)CC[C@@H]4[C@H]3CC[C@]12C", "note": "[Example 23, N—((S)-1-((3R,5R,8R,9R,10S,13S,14S,17S)-3-hydroxy-3,13-dimethylhexadecahydro-1H-cyclopenta[a]phenanthren-17-yl)ethyl)benzamide]", "pIC50": "5.00 to 6.00"}
{"smiles": "C[C@@H](NC(=O)c1ccccc1)[C@H]1CC[C@H]2[C@@H]3CC[C@@H]4C[C@](C)(O)CC[C@@H]4[C@H]3CC[C@]12C", "note": "[Example 24, N—((R)-1-((3R,5R,8R,9R,10S,13S,14S,17S)-3-hydroxy-3,13-dimethylhexadecahydro-1H-cyclopenta[a]phenanthren-17-yl)ethyl)benzamide]", "pIC50": "> 7.00"}
{"smiles": "C[C@@H](Nc1ccccc1)[C@H]1CC[C@H]2[C@@H]3CC[C@@H]4C[C@](C)(O)CC[C@@H]4[C@H]3CC[C@]12C", "note": "[Example 25, (3R,5R,8R,9R,10S,13S,14S,17S)-3,13-dimethyl-17-((R)-1-(phenylamino)ethyl)hexadecahydro-1H-cyclopenta[a]phenanthren-3-ol]", "pIC50": "> 7.00"}
{"smiles": "C[C@H](Nc1ccccc1)[C@H]1CC[C@H]2[C@@H]3CC[C@@H]4C[C@](C)(O)CC[C@@H]4[C@H]3CC[C@]12C", "note": "[Example 26, (3R,5R,8R,9R,10S,13S,14S,17S)-3,13-dimethyl-17-((S)-1-(phenylamino)ethyl)hexadecahydro-1H-cyclopenta[a]phenanthren-3-ol]", "pIC50": "5.00 to 6.00"}
{"smiles": "C[C@@H](NC(=O)c1cccnc1)[C@H]1CC[C@H]2[C@@H]3CC[C@@H]4C[C@](C)(O)CC[C@@H]4[C@H]3CC[C@]12C", "note": "[Example 29, N—((R)-1-((3R,5R,8R,9R,10S,13S,14S,17S)-3-hydroxy-3,13-dimethylhexadecahydro-1H-cyclopenta[a]phenanthren-17-yl)ethyl)nicotinamide]", "pIC50": "6.00 to 7.00"}
{"smiles": "C[C@H](NC(=O)c1cccnc1)[C@H]1CC[C@H]2[C@@H]3CC[C@@H]4C[C@](C)(O)CC[C@@H]4[C@H]3CC[C@]12C", "note": "[Example 30, N—((S)-1-((3R,5R,8R,9R,10S,13S,14S,17S)-3-hydroxy-3,13-dimethylhexadecahydro-1H-cyclopenta[a]phenanthren-17-yl)ethyl)nicotinamide]", "pIC50": "5.00 to 6.00"}
{"smiles": "COC[C@@]1(O)CC[C@H]2[C@H](CC[C@@H]3[C@@H]2CC[C@]2(C)[C@@H]([C@@H](C)NC(=O)c4ccc(C#N)cn4)CC[C@@H]32)C1", "note": "[Example 31, 5-cyano-N—((R)-1-((3R,5R,8R,9R,10S,13S,14S,17S)-3-hydroxy-3-(methoxymethyl)-13-methylhexadecahydro-1H-cyclopenta[a]phenanthren-17-yl)ethyl)picolinamide]", "pIC50": "6.00 to 7.00"}
{"smiles": "COC[C@@]1(O)CC[C@H]2[C@H](CC[C@@H]3[C@@H]2CC[C@]2(C)[C@@H]([C@H](C)NC(=O)c4ccc(C#N)cn4)CC[C@@H]32)C1", "note": "[Example 32, 5-cyano-N—((S)-1-((3R,5R,8R,9R,10S,13S,14S,17S)-3-hydroxy-3-(methoxymethyl)-13-methylhexadecahydro-1H-cyclopenta[a]phenanthren-17-yl)ethyl)picolinamide]", "pIC50": "5.00 to 6.00"}
{"smiles": "C[C@@H](Nc1ccc(C#N)cc1)[C@H]1CC[C@H]2[C@@H]3CC[C@@H]4C[C@](C)(O)CC[C@@H]4[C@H]3CC[C@]12C", "note": "[Example 33, 4-(((R)-1-((3R,5R,8R,9R,10S,13S,14S,17S)-3-hydroxy-3,13-dimethylhexadecahydro-1H-cyclopenta[a]phenanthren-17-yl)ethyl)amino)benzonitrile]", "pIC50": "> 7.00"}
{"smiles": "COC[C@@]1(O)CC[C@H]2[C@H](CC[C@@H]3[C@@H]2CC[C@]2(C)[C@@H]([C@H](C)Cn4nccc4C#N)CC[C@@H]32)C1", "note": "[Example 34, 1-((S)-2-((3R,5R,8R,9R,10S,13S,14S,17R)-3-hydroxy-3-(methoxymethyl)-13-methylhexadecahydro-1H-cyclopenta[a]phenanthren-17-yl)propyl)-1H-pyrazole-5-carbonitrile]", "pIC50": "> 7.00"}
{"smiles": "COC[C@@]1(O)CC[C@H]2[C@H](CC[C@@H]3[C@@H]2CC[C@]2(C)[C@@H]([C@H](C)Cn4ccc(C#N)n4)CC[C@@H]32)C1", "note": "[Example 35, 1-((S)-2-((3R,5R,8R,9R,10S,13S,14S,17R)-3-hydroxy-3-(methoxymethyl)-13-methylhexadecahydro-1H-cyclopenta[a]phenanthren-17-yl)propyl)-1H-pyrazole-3-carbonitrile]", "pIC50": "> 7.00"}
{"smiles": "COC[C@@]1(O)CC[C@H]2[C@H](CC[C@@H]3[C@@H]2CC[C@]2(C)[C@@H]([C@@H](C)Cn4ccc(C#N)n4)CC[C@@H]32)C1", "note": "[Example 36, 1-((R)-2-((3R,5R,8R,9R,10S,13S,14S,17R)-3-hydroxy-3-(methoxymethyl)-13-methylhexadecahydro-1H-cyclopenta[a]phenanthren-17-yl)propyl)-1H-pyrazole-3-carbonitrile]", "pIC50": "> 7.00"}
{"smiles": "COC[C@@]1(O)CC[C@H]2[C@H](CC[C@@H]3[C@@H]2CC[C@]2(C)[C@@H]([C@@H](C)Cn4nccc4C#N)CC[C@@H]32)C1", "note": "[Example 37, 1-((R)-2-((3R,5R,8R,9R,10S,13S,14S,17R)-3-hydroxy-3-(methoxymethyl)-13-methylhexadecahydro-1H-cyclopenta[a]phenanthren-17-yl)propyl)-1H-pyrazole-5-carbonitrile]", "pIC50": "> 7.00"}
{"smiles": "C[C@H]([C@H]1CC[C@H]2[C@@H]3CC[C@@H]4C[C@](C)(O)CC[C@@H]4[C@H]3CC[C@]12C)N(C)c1ccccc1", "note": "[Example 38, (3R,5R,8R,9R,10S,13S,14S,17S)-3,13-dimethyl-17-((R)-1-(methyl(phenyl)amino)ethyl)hexadecahydro-1H-cyclopenta[a]phenanthren-3-ol]", "pIC50": "6.00 to 7.00"}
{"smiles": "C[C@@H]([C@H]1CC[C@H]2[C@@H]3CC[C@@H]4C[C@](C)(O)CC[C@@H]4[C@H]3CC[C@]12C)N(C)c1ccccc1", "note": "[Example 39, (3R,5R,8R,9R,10S,13S,14S,17S)-3,13-dimethyl-17-((S)-1-(methyl(phenyl)amino)ethyl)hexadecahydro-1H-cyclopenta[a]phenanthren-3-ol]", "pIC50": "5.00 to 6.00"}
